Drawing on US11377469B2, “CD73 inhibitors” (ORIC Pharmaceuticals, Inc., priority 2017, dated 2022), this text covers IC50 for 23 compounds.

CD73, sequence (P21589 27-574): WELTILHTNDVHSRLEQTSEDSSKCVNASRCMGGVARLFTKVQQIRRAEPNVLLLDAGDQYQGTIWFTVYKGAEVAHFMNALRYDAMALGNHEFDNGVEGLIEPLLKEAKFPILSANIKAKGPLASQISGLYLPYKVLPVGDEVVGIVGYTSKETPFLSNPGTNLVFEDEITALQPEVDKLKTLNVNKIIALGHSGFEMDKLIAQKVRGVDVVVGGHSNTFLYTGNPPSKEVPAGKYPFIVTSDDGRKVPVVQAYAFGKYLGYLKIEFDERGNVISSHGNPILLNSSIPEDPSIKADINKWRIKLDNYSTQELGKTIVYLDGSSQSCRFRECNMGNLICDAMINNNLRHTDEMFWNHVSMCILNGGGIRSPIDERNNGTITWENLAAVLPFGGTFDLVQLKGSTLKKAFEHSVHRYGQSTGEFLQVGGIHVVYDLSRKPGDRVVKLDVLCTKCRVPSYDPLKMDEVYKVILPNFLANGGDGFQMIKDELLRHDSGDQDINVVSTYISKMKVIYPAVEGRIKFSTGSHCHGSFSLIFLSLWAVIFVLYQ

This assay deals with CD73 (Homo sapiens (Human), UniProt P21589). Put plainly: Biochemical Assay (CD73 inhibition, AMP hydrolysis, Malachite Green readout). The note with it: CD73 0.3208 nM, AMP 15 μM, Tris-HCl pH 7.4, Malachite Green absorbance. The method, then:
Example A1: Biochemical Assay
Assay Reaction Conditions
• Assay Volume: 70 μl • Reaction Volume: 50 μl • CD73: 0.3208 nM • AMP: 15 μM • Assay Buffer: 2 5 mM Tris-HCL, pH 7.4, 0.01% Brij-35, 0.01% BSA, 5 mM MgCl2 Assay Procedure:
Made dose titration of testing compounds in assay buffer, 10 points ½ log titrations in duplicates starting at 100 μM.
Added 25 μl of CD73 to each well for a final concentration of 320 pM.
Incubated at RT for 15 min.
Added 25 μl of AMP to each well for a final concentration of 15 μM.
Incubated at RT for 10 min.
Added 10 μl of Malachite Green Reagent A, incubate at RT for 10 min.
Added 10 μl of Malachite Green Reagent B, incubate at RT for 45 min. […]
The ability of the compounds disclosed herein to inhibit CD73 activity was quantified and the respective IC50 values were determined. Table 1 provides the biochemical IC50 values of compounds disclosed herein.
In general, IC50 refers to the concentration needed to halve the response being measured. Lower therefore signals greater potency in that assay. `O=P(O)(O)CS(=O)(=O)C[C@H]1O[C@@H](n2ncc3c(NC4CCCC4)nc(Cl)nc32)[C@H](O)[C@@H]1O` [Example 66, (((((2S,3S,4R,5R)-5-(6-chloro-4-(cyclopentylamino)-1H-pyrazolo[3,4-d]pyrimidin-1-yl)-3,4-dihydroxytetrahydrofuran-2-yl)methyl)sulfonyl)methyl)phosphonic acid] had an IC50 of at most 500 nM.

`O=P(O)(O)COC[C@H]1O[C@@H](n2ncc3c(NCC4CC4)nc(Cl)nc32)[C@H](O)[C@@H]1O` [Example 38, ((((2R,3S,4R,5R)-5-(6-chloro-4-((cyclopropylmethyl)amino)-1H-pyrazolo[3,4-d]pyrimidin-1-yl)-3,4-dihydroxytetrahydrofuran-2-yl)methoxy)methyl)phosphonic acid] gave an IC50 of at most 500 nM.

As to “((((1R,2R,3S,4R)-4-(5-Chloro-7-(((R)-2,3-dihydro-1H-inden-1-yl)amino)-3H-[1,2,3]triazolo[4,5-d]pyrimidin-3-yl)-2,3-dihydroxycyclopentyl)methoxy)methyl)phosphonic acid [Example 23]”, the half-inhibitory concentration (IC50) was at most 500 nM.

The compound `O=P(O)(O)COC[C@H]1O[C@@H](n2ncc3c(NC4CCOCC4)nc(Cl)nc32)[C@H](O)[C@@H]1O` [Example 73, ((((2R,3S,4R,5R)-5-(6-chloro-4-((tetrahydro-2H-pyran-4-yl)amino)-1H-pyrazolo[3,4-d]pyrimidin-1-yl)-3,4-dihydroxytetrahydrofuran-2-yl)methoxy)methyl)phosphonic acid] registered a 50% inhibitory concentration (IC50) of at most 500 nM.

The compound `CN(c1nc(Cl)nc2c1cnn2[C@@H]1O[C@H](COCP(=O)(O)O)[C@@H](O)[C@H]1O)C1CCCC1` [Example 53, ((((2R,3S,4R,5R)-5-(6-chloro-4-(cyclopentyl(methyl)amino)-1H-pyrazolo[3,4-d]pyrimidin-1-yl)-3,4-dihydroxytetrahydrofuran-2-yl)methoxy)methyl)phosphonic acid] had a half-inhibitory concentration (IC50) of at most 500 nM.

Compound `N#Cc1nc(NCc2cccc(Cl)c2)c2cnn([C@@H]3O[C@H](COCP(=O)(O)O)[C@@H](O)[C@H]3O)c2n1` [Example 18, ((((2R,3S,4R,5R)-5-(4-((3-Chlorobenzyl)amino)-6-cyano-1H-pyrazolo[3,4-d]pyrimidin-1-yl)-3,4-dihydroxytetrahydrofuran-2-yl)methoxy)methyl)phosphonic acid] registered a 50% inhibitory concentration (IC50) of at most 500 nM.

Compound `C[C@@]1(O)[C@@H](COCP(=O)(O)O)O[C@@H](n2ncc3c(NCc4ccccc4Cl)nc(Cl)nc32)[C@@H]1O` [Example 19, ((((2R,3S,4R,5R)-5-(6-Chloro-4-((2-chlorobenzyl)amino)-1H-pyrazolo[3,4-d]pyrimidin-1-yl)-3,4-dihydroxy-3-methyltetrahydrofuran-2-yl)methoxy)methyl)phosphonic acid] displayed a 50% inhibitory concentration (IC50) of 500 to 1000 nM.

For `O=P(O)(O)COC[C@H]1O[C@@H](n2nnc3c(N[C@H]4CCc5ccccc54)nc(Cl)nc32)[C@H](O)[C@@H]1O` [Example 12, ((((2R,3S,4R,5R)-5-(5-chloro-7-(((S)-2,3-dihydro-1H-inden-1-yl)amino)-3H-[1,2,3]triazolo[4,5-d]pyrimidin-3-yl)-3,4-dihydroxytetrahydrofuran-2-yl)methoxy)methyl)phosphonic acid], the IC50 is at most 500 nM.

For `O=P(O)(O)COC[C@H]1O[C@@H](n2ncc3c(NC[C@@H]4CCOC4)nc(Cl)nc32)[C@H](O)[C@@H]1O` [Example 71, ((((2R,3S,4R,5R)-5-(6-chloro-4-((((S)-tetrahydrofuran-3-yl)methyl)amino)-1H-pyrazolo[3,4-d]pyrimidin-1-yl)-3,4-dihydroxytetrahydrofuran-2-yl)methoxy)methyl)phosphonic acid], the half-inhibitory concentration (IC50) is at most 500 nM.

Turning to `CN(C[C@H]1O[C@@H](n2ncc3c(NCc4ccccc4Cl)nc(Cl)nc32)[C@H](O)[C@@H]1O)C(=O)CP(=O)(O)O` [Example 9, (2-((((2R,3S,4R,5R)-5-(6-chloro-4-((2-chlorobenzyl)amino)-1H-pyrazolo[3,4-d]pyrimidin-1-yl)-3,4-dihydroxytetrahydrofuran-2-yl)methyl)(methyl)amino)-2-oxoethyl)phosphonic acid], the 50% inhibitory concentration (IC50) was at most 500 nM.

`O=P(O)(O)COC[C@H]1O[C@@H](n2nnc3c(NCC4CC4)nc(Cl)nc32)[C@H](O)[C@@H]1O` [Example 16, ((((2R,3S,4R,5R)-5-(5-Chloro-7-((cyclopropylmethyl)amino)-3H-[1,2,3]triazolo[4,5-d]pyrimidin-3-yl)-3,4-dihydroxytetrahydrofuran-2-yl)methoxy)methyl)phosphonic acid] showed an IC50 of at most 500 nM.

As for `C[C@H](Nc1nc(Cl)nc2c1cnn2[C@@H]1O[C@H](COCP(=O)(O)O)[C@@H](O)[C@H]1O)c1cccc(Cl)c1` [Example 34, ((((2R,3S,4R,5R)-5-(6-chloro-4-(((S)-1-(3-chlorophenyl)ethyl)amino)-1H-pyrazolo[3,4-d]pyrimidin-1-yl)-3,4-dihydroxytetrahydrofuran-2-yl)methoxy)methyl)phosphonic acid], the IC50 is at most 500 nM.

The compound `COc1nc(NCC2CC2)c2cnn([C@@H]3O[C@H](COCP(=O)(O)O)[C@@H](O)[C@H]3O)c2n1` [Example 82, ((((2R,3S,4R,5R)-5-(4-((cyclopropylmethyl)amino)-6-methoxy-1H-pyrazolo[3,4-d]pyrimidin-1-yl)-3,4-dihydroxytetrahydrofuran-2-yl)methoxy)methyl)phosphonic acid] showed an IC50 of 500 to 1000 nM.

`CN(Cc1ccccc1Cl)c1nc(Cl)nc2c1nnn2[C@@H]1O[C@H](COCP(=O)(O)O)[C@@H](O)[C@H]1O` [Example 59, ((((2R,3S,4R,5R)-5-(5-chloro-7-((2-chlorobenzyl)(methyl)amino)-3H-[1,2,3]triazolo[4,5-d]pyrimidin-3-yl)-3,4-dihydroxytetrahydrofuran-2-yl)methoxy)methyl)phosphonic acid] had an IC50 of at most 500 nM.

In turn, `O=P(O)(O)CS(=O)(=O)C[C@H]1O[C@@H](n2ncc3c(NC4Cc5ccccc5C4)nc(Cl)nc32)[C@H](O)[C@@H]1O` [Example 126, (((((2S,3S,4R,5R)-5-(6-chloro-4-((2,3-dihydro-1H-inden-2-yl)amino)-1H-pyrazolo[3,4-d]pyrimidin-1-yl)-3,4-dihydroxytetrahydrofuran-2-yl)methyl)sulfonyl)methyl)phosphonic acid] came in with a concentration for half-maximal inhibition (IC50) of at most 500 nM.

Compound `O=P(O)(O)CS(=O)(=O)C[C@H]1O[C@@H](n2nnc3c(NC4CCCC4)nc(Cl)nc32)[C@H](O)[C@@H]1O` [Example 108, (((((2S,3S,4R,5R)-5-(5-chloro-7-(cyclopentylamino)-3H-[1,2,3]triazolo[4,5-d]pyrimidin-3-yl)-3,4-dihydroxytetrahydrofuran-2-yl)methyl)sulfonyl)methyl)phosphonic acid] registered a half-inhibitory concentration (IC50) of at most 500 nM.

Compound `O=P(O)(O)CCC[C@H]1O[C@@H](n2ncc3c(NC4CCCC4)nc(Cl)nc32)[C@H](O)[C@@H]1O` [Example 101, (3-((2R,3S,4R,5R)-5-(6-Chloro-4-(cyclopentylamino)-1H-pyrazolo[3,4-d]pyrimidin-1-yl)-3,4-dihydroxytetrahydrofuran-2-yl)propyl)phosphonic acid] displayed an IC50 of 500 to 1000 nM.

Take `CC(C)CNc1nc(Cl)nc2c1cnn2[C@@H]1O[C@H](COCP(=O)(O)O)[C@@H](O)[C@H]1O` [Example 63, ((((2R,3S,4R,5R)-5-(6-chloro-4-(isobutylamino)-1H-pyrazolo[3,4-d]pyrimidin-1-yl)-3,4-dihydroxytetrahydrofuran-2-yl)methoxy)methyl)phosphonic acid]: the IC50 is at most 500 nM.

`C[C@]1(O)C[C@@H](CNc2nc(Cl)nc3c2cnn3[C@@H]2O[C@H](COCP(=O)(O)O)[C@@H](O)[C@H]2O)C1` [Example 89, ((((2R,3S,4R,5R)-5-(6-chloro-4-((((1s,3S)-3-hydroxy-3-methylcyclobutyl)methyl)amino)-1H-pyrazolo[3,4-d]pyrimidin-1-yl)-3,4-dihydroxytetrahydrofuran-2-yl)methoxy)methyl)phosphonic acid] showed a 50% inhibitory concentration (IC50) of at most 500 nM.

With `C[C@@H](c1cccc(Cl)c1)N(C)c1nc(Cl)nc2c1cnn2[C@@H]1O[C@H](COCP(=O)(O)O)[C@@H](O)[C@H]1O` [Example 36], the half-inhibitory concentration (IC50) is over 1000 nM.

`O=P(O)(O)COC[C@H]1O[C@@H](n2ncc3c(Nc4ccccc4)nc(Cl)nc32)[C@H](O)[C@@H]1O` [Example 75, ((((2R,3S,4R,5R)-5-(6-chloro-4-(phenylamino)-1H-pyrazolo[3,4-d]pyrimidin-1-yl)-3,4-dihydroxytetrahydrofuran-2-yl)methoxy)methyl)phosphonic acid] registered a concentration for half-maximal inhibition (IC50) of at most 500 nM.

For `C[C@H](Nc1nc(Cl)nc2c1cnn2[C@@H]1O[C@H](CS(=O)(=O)CP(=O)(O)O)[C@@H](O)[C@H]1O)c1ccc(F)cc1` [Example 116, (((((2S,3S,4R,5R)-5-(6-chloro-4-(((S)-1-(4-fluorophenyl)ethyl)amino)-1H-pyrazolo[3,4-d]pyrimidin-1-yl)-3,4-dihydroxytetrahydrofuran-2-yl)methyl)sulfonyl)methyl)phosphonic acid], the IC50 was at most 500 nM.

The compound `O=P(O)(O)COC[C@H]1O[C@@H](n2ncc3c(N4CCCC4)nc(Cl)nc32)[C@H](O)[C@@H]1O` [Example 81, ((((2R,3S,4R,5R)-5-(6-chloro-4-(pyrrolidin-1-yl)-1H-pyrazolo[3,4-d]pyrimidin-1-yl)-3,4-dihydroxytetrahydrofuran-2-yl)methoxy)methyl)phosphonic acid] had an IC50 of at most 500 nM.
